According to ChEMBL document CHEMBL3301361, “Experimental in vitro DMPK and physicochemical data on a set of publicly disclosed compounds”:

Key:
[1] = in vitro; details: hepatocytes
[2] = physchem; details: octan-1-ol/water
[3] = in vitro; details: human, microsomes
[4] = in vitro; details: human, plasma, PPB
[5] = in vitro; details: SD, HW or BN, rat, plasma

SMILES	hepatocyte CLint [1] [µL/min/1e6 cells]	logD ([2]; pH 7.4, LogD7.4)	also measured
C[C@@H]1Cc2c([nH]c3cc(Cl)c(F)cc23)[C@]2(N1)C(=O)Nc1ccc(Cl)cc12	7.24		
CN1CCN(c2ccc(-c3cnc4cccc(-c5cc(F)c(CN6CCOCC6)c(F)c5)c4n3)cc2)CC1	14.4		
Nc1ccc2c(-c3ccncc3)c(-c3ccc(F)cc3)[nH]c2n1	117		
COc1ccc2nc(C)cc(-n3cc(CN4CCN(C(C)=O)CC4)nn3)c2c1	5.13	1.3	
Cc1nc(C(=O)N2CCOC3(CCN(Cc4ccc(Cl)cc4)CC3)C2)cs1	47	2.17	
Cc1cc(NC(=O)Nc2cccc3ccccc23)no1	95.5		
Cn1sc(=O)c2cc(S(=O)(=O)NC3CC3)ccc21	> 150	1.3	
COc1cc2cc(-c3ccc(O)cc3O)nc(C)c2cc1OC	> 150		
NCCc1ccc(O)c2nc(O)sc12	> 150		logD ([2]; pH 7.4): 0.33
c1ccc(Nc2nc3c(s2)CCCc2[nH]ncc2-3)nc1	36.3		
COc1ccc2ncc(F)c(CCN3CCC(NCc4ccc5c(n4)NC(=O)CO5)CC3)c2n1	39.8	1.78	
COc1ccc2ncc(=O)n(CCN3CCC(NCc4cc5c(cn4)OCCO5)CC3)c2c1	> 150	0.93	
C[C@@](C(=O)O[C@H]1C[N+]2(CCCc3cncnc3)CCC1CC2)(c1ccccc1)N1CCCCC1	66		
C[C@@](C(=O)O[C@H]1C[N+]2(CCCc3cc4ccccc4s3)CCC1CC2)(c1ccccc1)N1CCCCC1	65		
C[C@@](C(=O)O[C@H]1C[N+]2(CCOc3ccc(Cl)cc3)CCC1CC2)(c1ccccc1)N1CCCCC1	60		
C[C@@](C(=O)O[C@H]1C[N+]2(CCCOc3ccc(F)cc3)CCC1CC2)(c1ccccc1)N1CCCCC1	66		
C[C@@](C(=O)O[C@H]1C[N+]2(CCOCCc3ccccc3)CCC1CC2)(c1ccccc1)N1CCCCC1	77		
C[C@@](C(=O)O[C@H]1C[N+]2(CC(=O)Nc3ccncn3)CCC1CC2)(c1ccccc1)N1CCCCC1	39		
CC(C)=CCC[N+]12CCC(CC1)[C@@H](OC(=O)[C@](C)(c1ccccc1)N1CCCCC1)C2	101		
CN[C@@H](C)C(=O)N[C@H](C(=O)N[C@H]1C[C@@H]2CC[C@H]1N(CCc1ccccc1)C2)C1CCCCC1	19.9	1.64	
C[C@@](CCc1ccc(-c2ccc(Cl)cc2)cc1)(C(=O)NO)S(C)(=O)=O	< 3	2.4	
Cc1nn(C)c(C)c1-c1cccc2c(CCCOc3cccc4ccccc34)c(C(=O)O)[nH]c12	61.7		

SMILES	hepatocyte CLint [1] [µL/min/1e6 cells]	logD ([2]; pH 7.4, LogD7.4)	also measured
Cc1ccccc1-c1c(C(=O)O)n(CCCOc2cccc3ccccc23)c2ccccc12	123	3.89	
CCNC(=O)c1ccc(C)c(-n2cnc3ccc(N4CCN(C)CC4)cc3c2=O)c1	< 3	1.47	
O=C(Nc1cccc(-c2nnn[nH]2)c1)c1cccc2[nH]cnc12	44.7	-0.05	
O=C(Nc1cccc(-c2nnn[nH]2)c1)c1cc(O)cc(C(F)(F)F)c1	29.5	0.8	
Nc1cc(C(=O)Nc2cccc(-c3nnn[nH]3)c2)cc(C(F)(F)F)c1	23.4	0.2	
O=C(Nc1cccc(-c2nnn[nH]2)c1)c1cc(F)cc2nc[nH]c12	67.6	0.29	
Cc1ccc(-c2nc3ccccc3[nH]2)cc1NC(=O)c1ccc(OCc2ccccn2)cc1	10.2	3.24	
CCC(=C(c1ccc(O)cc1)c1ccc(OCCN(C)C)cc1)c1ccccc1	56.2		
Cc1ccc(C[C@@H](C(=O)O)N2CCC(CN3CCC(Oc4ccc(Cl)c(Cl)c4)CC3)CC2)cc1	< 3		
Cc1c(C(=O)NC2C3CC4CC(C3)CC2C4)cnn1-c1ccc(C(=O)O)cc1 (configuration not stated)	< 3		
CSc1c(C(=O)NC2C3CC4CC(C3)CC2C4)cnn1-c1ccc(C(=O)O)cc1 (configuration not stated)	12.3		
CCC(C)(C)C[C@H](c1ccc(C(=O)O)c(Oc2cccc(Cl)c2)c1)N1CCC[C@H](n2cc(C)c(=O)[nH]c2=O)C1	117	1.37	
CCCCC[C@H](c1ccc(C(=O)O)c(Oc2cccc(Br)c2)c1)N1CCC[C@H](n2cc(C)c(=O)[nH]c2=O)C1	30.2	1.69	
CCC(C)(CC)C[C@H](c1ccc(C(=O)O)c(Oc2cccc(Br)c2)c1)N1CCC[C@H](n2cc(C)c(=O)[nH]c2=O)C1	69.2	1.97	
Cc1cn([C@H]2CCCN([C@H](CC3CCCCC3)c3ccc(C(=O)O)c(Oc4cccc(Cl)c4)c3)C2)c(=O)[nH]c1=O	42.7		
O=C(O)CN1C(=O)C(=O)c2ccccc21	26.9		
Cc1cc(Oc2cc(S(=O)(=O)N3CCC[C@H](n4cc(C)c(=O)[nH]c4=O)C3)ccc2O)ccc1Cl	20.4	2.4	
O=C(O)c1cc2cc(OCc3ccccc3)ccc2[nH]1	25.7	0.4	
O=c1cc(-c2ccc(Br)cc2)oc2ccccc12	< 3		
CC(C)C[C@H](N)C(=O)NC[C@H](O)C[C@@H](N)CC(=O)NN(C)CC(=O)O	< 3		
O=c1c2ccccc2[nH]n1Cc1c[nH]c2ccccc12	4.37		
Cc1cccc2c(O)nc(-c3ccc(C(F)(F)F)cc3)nc12	45.7		

SMILES	hepatocyte CLint [1] [µL/min/1e6 cells]	logD ([2]; pH 7.4, LogD7.4)	also measured
COc1ccc(C)c(Nc2ncc3ccn(-c4ccccn4)c3n2)c1	83.2		
O=C([C@@H]1CCCN1)N1CCN(c2nc(NCc3ccc(Cl)cc3Cl)c3cccnc3n2)CC1	6	2.41	
CNC(=O)c1c(F)cccc1Nc1nc(Nc2cc3c(cc2OC)CCN3C(=O)CN(C)C)nc2[nH]ccc12	21.9	2.61	
O=C(c1ccc(O)cc1O)N1CCCC1	> 150		
COc1ccc(N(C(=O)c2ccccc2)C(C(=O)NC[C@@H](C)O)c2ccccc2F)c(OC)c1 (some centres not stated)	> 150		
CS(=O)(=O)N1CC[C@H](N(Cc2ccccc2Cl)c2ccc(C#N)c(Cl)c2)C1	72.4		logD ([2]; pH 7.4): 4
CN(C)CC[C@H](CSc1ccccc1)Nc1ccc(S(=O)(=O)NC(=O)c2ccc(N3CCN(Cc4ccccc4-c4ccc(Cl)cc4)CC3)cc2)cc1[N+](=O)[O-] [ABT 737]	9.55		
CCC1(CCC(C)C)C(=O)NC(=O)NC1=O [AMOBARBITAL]	11.8		
COc1cc2nccc(Oc3ccc(NC(=O)C4(C(=O)Nc5ccc(F)cc5)CC4)cc3)c2cc1OC [CABOZANTINIB]	3.16		
CC1=C(C(=O)O)N2C(=O)[C@@H](NC(=O)[C@H](N)c3ccc(O)cc3)[C@H]2SC1 [CEFADROXIL]	< 3	-0.86	
C[C@H]1Cc2c([nH]c3cc(Cl)c(F)cc23)[C@@]2(N1)C(=O)Nc1ccc(Cl)cc12 [CIPARGAMIN]	8.71		
CN(C)CCC=C1c2ccccc2C=Cc2ccccc21 [CYCLOBENZAPRINE]		2.83	microsomal CLint [3]: 4.07 µL/min/mg; fraction unbound at 5 h [4]: 0.0784; fraction unbound at 5 h [5]: 0.117
CC(C)OC(=O)C(C)(C)Oc1ccc(C(=O)c2ccc(Cl)cc2)cc1 [FENOFIBRATE]	54		
O=C(O)c1cc2ccccc2[nH]1 [INDOLE-2-CARBOXYLIC ACID]	11		
N[C@@H](C(=O)N[C@@H]1C(=O)N2C(C(=O)O)=C(Cl)CC[C@H]12)c1ccccc1 [LORACARBEF ANHYDROUS]	< 3		
CC1(C)CCC(c2ccc(Cl)cc2)=C(CN2CCN(c3ccc(C(=O)NS(=O)(=O)c4ccc(N[C@H](CCN5CCOCC5)CSc5ccccc5)c(S(=O)(=O)C(F)(F)F)c4)cc3)CC2)C1 [NAVITOCLAX]	9.77	0.64	
COC1=CC(c2cc3ccccc3[nH]2)=N/C1=C\c1[nH]c(C)cc1C [OBATOCLAX]	22.4	2.55	
Cc1ccccc1C(OCCN(C)C)c1ccccc1 (configuration not stated) [ORPHENADRINE]	> 150	1.47	
CO[C@H]1/C=C/O[C@@]2(C)Oc3c(C)c(O)c4c(O)c(cc(O)c4c3C2=O)NC(=O)/C(C)=C\C=C\[C@H](C)[C@H](O)[C@@H](C)[C@@H](O)[C@@H](C)[C@H](OC(C)=O)[C@@H]1C [RIFAMYCIN]	< 3	1.19	
CO[C@H]1C[C@@H]2CC[C@@H](C)[C@@](O)(O2)C(=O)C(=O)N2CCCC[C@H]2C(=O)O[C@H]([C@H](C)C[C@@H]2CC[C@@H](OC(=O)C(C)(CO)CO)[C@H](OC)C2)CC(=O)[C@H](C)/C=C(\C)[C@@H](O)[C@@H](OC)C(=O)[C@H](C)C[C@H](C)/C=C/C=C/C=C/1C [TEMSIROLIMUS]	> 150		
CC[C@@]1(O)C(=O)OCc2c1cc1n(c2=O)Cc2cc3c(CN(C)C)c(O)ccc3nc2-1 [TOPOTECAN]	3.24	0.31	
